This note sets out measurements from patent US6284910A, “Farnesyl pyrophosphate analogs” (University of Kentucky Research Foundation, priority 1999, dated 2001).

The structures appear in SMILES notation. “Also recorded” adds a separate entry of the source.

The target of experiment [1] is T1, recombinant rat brain FTase (Rattus norvegicus, UniProt Q02293+Q04631).
T1 construct: 6xHis (N); made in house; host or cells: Sf9 insect cells (baculovirus)
The experiment can be described thus: Inhibition of FTase-catalyzed transfer of [^3 H]farnesyl from [^3 H]FPP to H-Ras. In kind it is biochemical. The note with it: concentrations as high as 250 μM. The protocol: FIG. 2. Differential Inhibition of Farnesyltransferase and CAAX Geranylgeranyltransferase by AGPP. The assay mixtures contained (in a final volume of 25 μl) various components as described in "Experimental Procedures". After incubation for 15 min at 37° C., the amount of [^3 H]prenyl group transferred to the appropriate protein substrate [H-Ras (CVLS) for FTase and H-Ras (CVLL) for CAAX GGTase] was measured by precipitation with ethanol-HCl. The assays contained 10 ng recombinant rat FTase, 5 μM H-Ras, and 0.6 μM [^3 H]FPP (33,000 dpm/pmol) or 100 ng recombinant rat CAAX GGTase, 5 μM H-Ras CVLL, and 1 μM [^3 H]GGPP (33,000 dpm/pmol) and the indicated concentration of unlabeled AGPP. The 100% of control values were 1.1 and 5.5 pmol of [^3 H]farnesyl or [^3 H]geranylgeranyl transferred per tube. Each value is the average of duplicate incubations and is representative of two separate experiments.
FIG. 3. Inhibition of Farnesyltransferase by AGPP and I-AGPP. The enzymatic activity was measured in the presence of the various concentrations of either AGPP or I-AGPP as described in […]. The 100% control values were 1.9 and 2 pmol. Each value is the average of duplicate incubations and is representative of three separate experiments.
(§1) Assay for Farnesyltransferase Activity--Farnesyltransferase activity was assayed by measuring the amount of [^3 H]farnesyl or [^3 H]anilinogeranyl transferred from [^3 H]FPP or [^3 H]AGPP to recombinant p21^H-ras, as described previously (31). Unless otherwise stated, each reaction mixture contained the following components in a final volume of 25 μl: 50 mM Tris (pH 7.4), 20 mM KCl, 0.2% octyl β-glucopyranoside, 1 mM dithiothreitol, 10-20 ng recombinant FTase, 5 μM p21^Ha-ras, 3 mM MgCl2, 50 μM ZnCl2, and 0.6 μM [^3 H]FPP (33,000 dpm/pmol; American Radiochemical Co.) or 0.1-5 μM [^3 H]AGPP (37,400 dpm/pmol). Following incubation for the indicated times at 37° C., the amount of [^3 H]prenyl transferred was measured by ethanol-HCl precipitation and filtration on glass fiber filters with modification as previously described (19). A blank value was determined in parallel incubation mixtures containing no enzyme. This blank value was subtracted from each reaction before calculating pmol [^3 H]prenyl transferred.
Inhibition of Farnesyltransferase by AGPP--AGPP was tested for its ability to inhibit recombinant rat brain FTase activity in vitro. AGPP inhibited FTase in a concentration dependent manner with an IC50 value of 0.6 μM (FIG. 2).
Kinetic analyses were carried out to investigate the mechanism of FTase inhibition by AGPP. […] The same Km value was observed when the Lineweaver-Burke plot was analyzed under different Ras and AGPP concentrations in the presence of a constant concentration of FPP. […] AGPP inhibition is reversible, since transfer of [^3 H]-FPP by FTase to Ras was restored by isolating the farnesyltransferase by gel filtration chromatography after preincubation in the presence of 50 μM AGPP (data not shown).
The assays contained 10 ng recombinant rat FTase, 5 μM H-Ras, and 0.6 μM [^3 H]FPP (33,000 dpm/pmol) or 100 ng recombinant rat CAAX GGTase, 5 μM H-Ras CVLL, and 1 μM [^3 H]GGPP (33,000 dpm/pmol) and the indicated concentration of unlabeled AGPP. The 100% of control values were 1.1 and 5.5 pmol of [^3 H]farnesyl or [^3 H]geranylgeranyl transferred per tube.

For experiment [2], the target named is T2, FTase (Rattus norvegicus, UniProt Q02293+Q04631). As to the kind of experiment: Inhibition of FTase-catalyzed transfer of [^3 H]AGPP to p21^H-ras. The note with it: non-radiolabeled compound, time and concentration dependent transfer. More on the design: H-Ras is only the protein substrate. Format: biochemical. On the procedure:
as §1
(§2) The observed inhibition kinetics could be a manifestation of the ability of AGPP to act as an alternative substrate for FTase. To evaluate the potential of AGPP to serve as a substrate of FTase, [^3 H]-AGPP was prepared by a similar route as described above, incorporating tritium with a specific activity of 17 Ci/mmol (synthesis to be reported elsewhere). […] The incorporated radioactivity was detected as a band of the expected molecular weight of farnesylated p21^H-ras on SDS-polyacrylamide gels (FIG. 4A, inset). […] The concentration of [^3 H]AGPP that gave half-maximal reaction velocity was approximately 0.5 μM (FIG. 4B).

In experiment [3] the target is T2, FTase. As to the kind of experiment: FTase-catalyzed transfer of labeled FPP analogs to p21^H-ras (substrate assay). In kind it is biochemical. More on the design: H-Ras is only the protein substrate. Particulars: in vitro, 37° C. The protocol:
FIG. 4. Transfer of Anilinogeranyl from [^3 H]AGPP to p21^Ha-ras by Farnesyltransferase. (A) Each reaction contained 1 μM [^3 H]AGPP (37,400 dpm/pmol) and 10 ng of recombinant FTase in the absence (triangles) or presence (circles) of 5 μM p21^Ha-ras Duplicate samples were incubated for the indicated times at 37° C., and ethanol-HCl precipitated radioactivity was measures as described under "Experimental Procedures". […] The gel was treated with Amplify solution (Amersham), dried, and exposed to Kodak X-OMAT AR film for 2 days at -70° C. The migration of molecular weight markers placed in a adjacent lane is shown. (B) The AGPP substrate saturation curve for FTase was determined by varying the amount of [^3 H]AGPP in the standard reaction described above. Assays were carried out in duplicate for 30 min at 37° C., and the ethanol-HCl precipitable radioactivity measured. The data is representative of three independent experiments.
FIG. 5. […] Farnesyltransferase (10 ng) was incubated in a final volume of 25 μl in the presence of 1.0 μM [^3 H]AGPP or [^3 H]FPP and 5 μM wild-type p21^Ha-ras. After incubation for 30 min at 37° C., the amount of [^3 H]prenyl transferred to p21^Ha-ras was determined as described under "Experimental Procedures". Each value is the average of duplicate incubations and is representative of five separate experiments.
as §1, §2
FIG. 5 depicts transfer of unnatural anilinogeranyl lipid from [^3 H]AGPP and transfer of farnesyl lipid from [^3 H]FPP to H-Ras by FTase. Farnesyltransferase (10 ng) was incubated in a final volume of 25 μl in the presence of 1.0 μM [^3 H]AGPP or [^3 H]FPP and 5 μM wild-type H-Ras. After incubation for 30 min. at 37° C., the amount of [^3 H]prenyl transferred to H-Ras was determined by ethanol-HCl precipitation and scintillation counting. Each value is the average of duplicate incubations and is representative of five separate experiments.

In experiment [4] the target is T2, FTase. The experiment can be described thus: Continuous fluorescence assay: transfer of FPP and analogs to N-dansyl-GCVLS by FTase. Particulars: excitation 340 nm, 505 nm. Format: biochemical. The text has this: FIG. 8. Progress Curves for Transfer of FPP and Analog Pyrophosphates to Dansyl-GCVLS by FTase. The reaction is monitored for fluorescence intensity at 505 nm with excitation at 340 nm. (a) FPP, (b) AGPP, (c) 8-(pentafluoroaniline)geranyl pyrophosphate, (d) blank.
Continuous Fluorescence Assay for Analog Transfer: An important requirement for these studies is the development of a rapid technique for evaluating whether FPP analogs that are efficiently and appropriately transferred to target substrates by FTase. The analogs were evaluated for their ability to be transferred by FTase to the pentapeptide N-dansyl-GCVLS in a continuous fluorescence assay. (See references 78, 79, infra). There is a time dependent increase in the fluorescence of the dansyl group due to the local increase in hydrophobicity as the adjacent cysteine residue is isoprenylated. […] (FIG. 8).

Experiment [5] concerns Xenopus laevis oocytes. The experiment can be described thus: Xenopus laevis oocyte maturation assay (GVBD) with oncogenic H-Ras in mevinolin-treated oocytes. Format: cell-based. Particulars: 50 μM mevinolin, overnight. The text has this: Recently, a novel methodology involving the microinjection of known amounts of Ras into Xenopus oocytes has been described (see references 24, 45, infra), thereby permitting a quantitative structure-function analysis of H-Ras farnesyl-group for signal transduction in vivo. The approach makes use of enzymatic methods to attach structurally related farnesyl analogs onto the prenylation site of H-Ras combined with microinjection procedures to study their in vivo function. Oocytes are naturally arrested at the G2-M boundary of the first meiotic cell division. (See reference 80, infra). When microinjected with oncogenic H-Ras, oocytes reenter the cell cycle, which is monitored by germinal vesicle breakdown (GVBD) by the appearance of a white spot in the animal hemisphere. GVBD is accompanied by activation of the mitogen-activated protein kinase (MAPK) cascade. (See 81, 82, infra). […] (See references 24, 45, infra). These biochemical effects are strictly dependent on in vivo farnesylation of the injected H-Ras protein since mutation of the CaaX prenylation motif, blocking isoprenoid biosynthesis, and inhibition of FTase in oocytes all suppress these activities. (See references 83-85, infra). Thus, the system provides a method to study the in vivo role of prenylation by analyzing the ability of FPP analogues to rescue H-Ras biological functions in isoprenoid-depleted oocytes. […] Oocytes were isolated from X. laevis females and allowed to recover overnight. (See 24, 45, infra).

For the compound `C/C(=C\CO)CC/C=C(\C)CNc1ccccc1` [AG-OH, (E,E)-8-Aniline-3,7-dimethyl-2,6-octadien-1-ol], the “inhibition of FTase by anilinogeranyl alcohol, in words” value in experiment [1] is “did not significantly inhibit”. In addition, the “inhibition of transfer of [^3 H]AGPP to p21^H-ras, in words” value in experiment [2] is on record as “not AG-OH or farnesol were found to inhibit”.

With `C/C(=C\COP(=O)(O)OP(=O)(O)O)CC/C=C(\C)CNc1ccc(I)cc1` [I-AGPP, 8-(4-iodoaniline)-3,7-dimethyl-2,6-octadiene pyrophosphate], the “transfer to p21^H-ras by FTase, in words” value was “efficient transfer of I-AGPP by FTase to H-Ras” in experiment [3]; “time and substrate dependent manner similar to [^3 H]AGPP” in experiment [3] (listed as 125 I-AGPP).

As to `C/C(=C\COP(=O)(O)OP(=O)(O)O)CC/C=C(\C)CNc1ccc([N+](=O)[O-])cc1` [analog 2, 8-(4-nitroaniline)-3,7-dimethyl-2,6-octadiene pyrophosphate], in experiment [4], the “time-dependent increase in dansyl fluorescence / transfer to dansyl peptide, in words” value was “Time-dependent increases in the fluorescence of the dansyl group”.

On to `C/C(=C\COP(=O)(O)OP(=O)(O)O)CC/C=C(\C)CNc1c(F)c(F)c(F)c(F)c1F` [analog 4, 8-pentafluoroaniline-3,7-dimethyl-2,6-octadiene pyrophosphate], for which the “time-dependent increase in dansyl fluorescence / transfer to dansyl peptide, in words” value in experiment [4] is recorded as “Time-dependent increases in the fluorescence of the dansyl group; also recorded: does not change the apparent kinetics of transfer”.

In the case of `C/C(=C\COP(=O)(O)OP(=O)(O)O)CC/C=C(\C)CNc1c(F)c(F)c(N=[N+]=[N-])c(F)c1F` [analog 5, 8-(4-azido-2,3,5,6-tetrafluoroaniline)-3,7-dimethyl-2,6-octadiene pyrophosphate], in experiment [4], the “time-dependent increase in dansyl fluorescence / transfer to dansyl peptide, in words” value is “no increase in fluorescence, and are not transferred”.

With `CCN(C/C(C)=C/CC/C(C)=C/COP(=O)(O)OP(=O)(O)O)c1c(F)c(F)c(N=[N+]=[N-])c(F)c1F` [analog 6, 8-(N-ethyl-4-azido-2,3,5,6-tetrafluoroaniline)-3,7-dimethyl-2,6-octadiene pyrophosphate], the “time-dependent increase in dansyl fluorescence / transfer to dansyl peptide, in words” value in experiment [4] was “no increase in fluorescence, and are not transferred”.

On to `C/C(=C\COP(=O)(O)OP(=O)(O)O)CCCOCc1ccccc1` [analog 12, 6-benzyloxy-3-methyl-2-hexene pyrophosphate], for which the “time-dependent increase in dansyl fluorescence / transfer to dansyl peptide, in words” value in experiment [4] was “transferred to dansyl peptide by FTase with slow kinetics; also recorded: Time-dependent increases in the fluorescence of the dansyl group”.

Turning to `CC(C)=CCCC(C)=CCCC(C)=CCO` [farnesol, reference compound], in experiment [2], the “inhibition of transfer of [^3 H]AGPP to p21^H-ras, in words” value is “not AG-OH or farnesol were found to inhibit”.

As for `CC[C@H](C)C(=O)O[C@H]1C[C@@H](C)C=C2C=C[C@H](C)[C@H](CC[C@@H]3C[C@@H](O)CC(=O)O3)[C@H]21` [mevinolin, reference compound], the “depletion of endogenous FPP pool” value in experiment [5] is on record as “effectively depletes the endogenous pool of FPP”.
